Measured values as given in patent US12630829B2, “Gene encoding cytochrome P450 and use thereof” (KUMIAI CHEMICAL INDUSTRY CO., LTD., priority 2020, dated 2026).
Entries after “also recorded” stand apart in the source; their conditions may differ.

What was measured:
[1] = tested on: CYP81A6; conditions: reported so far; cited from earlier work
[2] = tested on: wild type Arabidopsis thaliana; test: Fenquinotrione sensitivity test on MS solid medium, wild type; assay type: in vivo; conditions: 10 nM in MS solid medium, 22° C., about 10 days, evaluated subjectively
Method: With a sensitivity difference from wild type Arabidopsis thaliana used as an index, it was verified whether or not the created transformant had resistance to fenquinotrione. In MS solid media in each of which fenquinotrione was added to a final concentration of 10,000, 1,000, 100, 10, or 1 nM, or 0.1% of DMSO was added as an untreated plot, sterilized seeds of Arabidopsis thaliana having AK454412 forced expression and wild type Arabidopsis thaliana were each seeded, and grown at 22° C. for about 10 days. The sensitivity to this drug was evaluated subjectively in accordance with the degree of chlorosis of acting symptom. The results are illustrated in FIG. 9. FIG. 9(A) illustrates results obtained in using the wild type Arabidopsis thaliana, and FIG. 9(B) illustrates results obtained in using the Arabidopsis thaliana having AK454412 forced expression.

[3] = tested on: AK454412 (wheat-derived P450) co-expressed with TaCPR; test: In vitro metabolism test using co-expression crude enzyme of AK454412 and TaCPR (LC/MS); assay type: in vitro ADME; conditions: 10 μM fenquinotrione, 1 mg crude enzyme, 1 mM β-NADPH, 30° C., 1 hour
Method: A single colony of the recombinant E. coli into which each of the above-described two expression constructs had been introduced was inoculated in 3 ml of LB liquid medium, followed by culturing at 37° C. and 200 rpm overnight. 2.5 mL of the resultant culture fluid was added to 250 mL of TB medium (containing 100 ppm carbenicillin and 50 ppm chloramphenicol) held in a 1 L Erlenmeyer flask, followed by culturing at 37° C. and 200 rpm until an OD600 of about 0.5 to 0.6 was obtained. After the resultant flask was cooled with ice, IPTG and aminolaevulinic acid were added thereto to final concentrations of 1 mM and 0.5 mM, respectively, followed by culturing at 20° C. and 110 rpm. 22 hours after the IPTG induction, the resultant culture fluid was centrifuged (4° C., 15,000 rpm, 1 min). A bacterial cell in the obtained 500 mL of culture fluid was suspended in 35 mL of P450 Buffer [50 mM potassium phosphate buffer (pH 7.3), 20% glycerol, 1 mM EDTA, and 1 mM DTT] to be sonicated, followed by centrifugation at 4° C. and at 6,000×g for 10 minutes. The supernatant was centrifuged at 4° C. and at 100,000×g for 1 hour, and a solution obtained by adding P450 Buffer by 1 mL to the obtained precipitate and homogenizing the resultant with a Teflon homogenizer was used as a co-expression crude enzyme solution for AK454412 and TaCPR. […]

[4] = tested on: AK369081 (barley-derived P450) co-expressed with TaCPR; test: In vitro drug metabolism test of AK369081 protein against fenquinotrione; assay type: in vitro ADME; conditions: test method and conditions of Example 1; AK369081 reaction plot
Method: It was verified by in vitro metabolism test whether or not a novel wheat-derived P450 of AK454412 is involved in herbicide metabolism. As a compound having high safety against wheat, fenquinotrione was used. […] A solution after completing the enzymatic reaction was centrifuged at 15,000 rpm for 1 minute, and the obtained supernatant was filtered through a 0.45 μm filter and then tested by LC/MS. LC/MS conditions were as follows:
Specifically, in the same manner as in KJ541960, recombinant proteins of these genes were prepared to evaluate, by in vitro test, whether or not these have fenquinotrione metabolic activity. First, an expression vector was designed by inserting, between NdeI and EcoRI sites of pET-22b(+), a nucleotide sequence, which encoded a sequence obtained by removing the transmembrane region (AK375492: 35 N-terminal amino acid residues, AK369081: 37 N-terminal amino acid residues) of each of the genes of Accession Nos. AK375492 and AK369081, and adding the 6β sequence (MAKKTSS) to the N-terminal, and synthesis of artificial genes was requested of GenScript. Each of the synthesized expression vectors (6β AK375492 in pET-22b, 6β AK369081 in pET-22b) was co-introduced, together with pACYC-del31_TaCPR, into E. coli BL21 star (DE3) strain for protein expression (FIG. 15). […]

For `COc1ccc(-n2c(=O)c(C(=O)C3C(=O)CCCC3=O)nc3c(Cl)cccc32)cc1` [fenquinotrione], the “metabolic reactivity of CYP81A6 against the compound” value [1] is given as “exhibits metabolic reactivity”, the “wild type Arabidopsis thaliana having chlorosis” value [2] is given as no less than 90% and the “metabolic degradation of fenquinotrione (production of the demethylated product, LC/MS)” value [3] is given as “metabolically degrades fenquinotrione to the demethylated product; also recorded: a parent peak of fenquinotrione was reduced, and a peak of the demethylated product appeared”. The “metabolism of fenquinotrione (generation of demethylated product as index)” value [4] was “a peak of the demethylated product (RT=in the vicinity of 15.1) appeared”.
